Consider eight molecules from ChEMBL document CHEMBL1155112, “Alkaloids from the leaves of Uncaria rhynchophylla and their inhibitory activity on NO production in lipopolysaccharide-activated microglia” (J Nat Prod, 2008).

The nature of experiment [1]: Inhibition of LPS-stimulated NO release in rat cortical microglial cells assessed as nitrite accumulation at 1 ug/ml after 48 hrs relative to LPS. It is filed as functional. Particulars: Microglia, values are per cent of control.
Experiment [2] in a line: Inhibition of LPS-stimulated NO release in rat cortical microglial cells assessed as nitrite accumulation after 48 hrs. Particulars: Microglia. It is filed as functional.
The test system of experiment [3] is Microglia. The experiment in a line: Cell viability of LPS-stimulated rat cortical microglial cells after 48 hrs by MTT assay. It is filed as functional, cell-based.
Experiment [4] can be described thus: Inhibition of LPS-stimulated NO release in rat cortical microglial cells assessed as nitrite accumulation at 10 ug/ml after 48 hrs relative to LPS. It is filed as functional. The note with it: Microglia, values are per cent of control.
The nature of experiment [5]: Inhibition of LPS-stimulated NO release in rat cortical microglial cells assessed as nitrite accumulation at 100 ug/ml after 48 hrs relative to LPS. The note with it: Microglia, values are per cent of control. The format is functional.
Experiment [6] deals with Microglia. Description: Cell viability of rat cortical microglial cells after 48 hrs by MTT assay. It is filed as functional, cell-based.
Experiment [7] in a line: Inhibition of NO release in LPS-stimulated rat cortical microglial cells assessed as nitrite accumulation at 30 uM after 48 hrs relative to LPS. The format is functional. The note with it: Microglia, values are per cent of control.
A short description of experiment [8]: Inhibition of LPS-stimulated NO release in rat cortical microglial cells assessed as nitrite accumulation at 3 uM after 48 hrs relative to LPS. It is filed as functional. Particulars: Microglia, values are per cent of control.

pIC50: −log10 of the molar value. Active and inactive are the calls of the source. The rule behind the calls is not given here.

For the molecule `C=C[C@@H]1CN2CC[C@@]3(C(=O)Nc4ccccc43)[C@@H]2C[C@@H]1/C(=C\OC)C(=O)O`, the response, % of control at 1 µg/mL in experiment [1] came to 98.8%. The negative logarithm of the IC50 (pIC50) in experiment [2] was below 4.00. For the same molecule, the result with Microglia [3] and with Microglia [6] was inactive. In addition, in experiment [4], the response, % of control at 10 µg/mL turned out to be 107%. Besides, the response, % of control at 100 µg/mL in experiment [5] stood at 92.7%.

For `C=C[C@@H]1CN2CC[C@]3(C(=O)Nc4ccccc43)[C@@H]2C[C@@H]1/C(=C\OC)C(=O)O` [18,19-DEHYDROCORYNOXINIC ACID B], the response, % of control at 1 µg/mL in experiment [1] came out at 81.9%. The pIC50 in experiment [2] is below 4.00. The result with Microglia [3] and with Microglia [6] was inactive. In addition, the response, % of control at 10 µg/mL in experiment [4] was 84.2%. Further, in experiment [5], the response, % of control at 100 µg/mL turned out to be 88.9%.

On to `C=C[C@H]1CN2CC[C@]3(C(=O)Nc4ccccc43)[C@@H]2C[C@@H]1/C(=C\OC)C(=O)OC` [CORYNOXEINE], for which, in experiment [1], the response, % of control at 1 µg/mL came out at 86.9%. Further, the pIC50 in experiment [2] was 4.80. For the same molecule, the result in the experiment with Microglia [3] and with Microglia [6] was inactive. Besides, the response, % of control at 10 µg/mL in experiment [4] was determined as 74.5%. Also, in experiment [5], the response, % of control at 100 µg/mL was determined as 37.9%.

Regarding `C=C[C@H]1CN2CC[C@@]3(C(=O)Nc4ccccc43)[C@@H]2C[C@@H]1/C(=C\OC)C(=O)OC` [ISOCORYNOXEINE], the response, % of control at 1 µg/mL in experiment [1] stood at 92.2%. The pIC50 in experiment [2] is 4.86. The outcome in the experiment on Microglia [3] and with Microglia [6] was inactive. The response, % of control at 10 µg/mL in experiment [4] was 73.2%. Moreover, in experiment [5], the response, % of control at 100 µg/mL came out at 40.5%.

For `CC[C@H]1CN2CC[C@@]3(C(=O)Nc4ccccc43)[C@@H]2C[C@@H]1/C(=C\OC)C(=O)OC` [ISORHYNCHOPHYLLINE], in experiment [1], the response, % of control at 1 µg/mL was found to be 95.2%. Moreover, the negative-log IC50 (pIC50) in experiment [2] was 4.72. The result in the experiment with Microglia [3] and with Microglia [6] was inactive. Further, the response, % of control at 10 µg/mL in experiment [4] was determined as 76.9%. Further, in experiment [5], the response, % of control at 100 µg/mL stood at 42.1%.

Consider `Oc1ccc(/C=C/c2cc(O)cc(O)c2)cc1` [RESVERATROL], for which the response, % of control at 30 µM in experiment [7] was determined as 43.4%. The negative logarithm of the IC50 (pIC50) in experiment [2] is 4.94. Besides, the response, % of control at 10 µg/mL in experiment [4] was found to be 72.4%. In experiment [8], the response, % of control at 3 µM amounted to 92%.

On to `CC[C@H]1CN2CC[C@]3(C(=O)Nc4ccccc43)[C@@H]2C[C@@H]1/C(=C\OC)C(=O)OC` [RHYNCHOPHYLLINE], for which the response, % of control at 1 µg/mL in experiment [1] was 106%. In experiment [2], the pIC50 was 4.73. Also, the outcome with Microglia [3] and in the experiment on Microglia [6] was inactive. The response, % of control at 10 µg/mL in experiment [4] was found to be 75.8%. In addition, the response, % of control at 100 µg/mL in experiment [5] is 35.9%.

On to `C=C[C@H]1C(O[C@@H]2O[C@H](CO)[C@@H](O)[C@H](O)[C@H]2O)OC=C2C(=O)N3CCc4c([nH]c5ccccc45)[C@@H]3C[C@H]21` (stereo partly specified) [VINCOSIDE LACTAM], for which the response, % of control at 1 µg/mL in experiment [1] turned out to be 71.8%. Further, the pIC50 in experiment [2] is 4.79. In addition, the outcome in the experiment on Microglia [3] and in the experiment on Microglia [6] was inactive. In experiment [4], the response, % of control at 10 µg/mL is 65.7%. Also, the response, % of control at 100 µg/mL in experiment [5] stood at 38.6%.
